# Assay results taken from article PMC7589200, “Identification of Putative Non-Substrate-Based XT-I Inhibitors by Natural Product Library Screening” (Biomolecules, 2020).
# Tests used:
# Format in all cases: cell-based, human
# XYLT1 mRNA expression = XYLT1 mRNA expression in NHDFs by qRT-PCR; conditions: TGF-β1 5 μg/L, 48 h
# Method: (§1) A former established cell culture model was utilized to investigate the effect of putative XT-I inhibitors on NHDFs. The inhibition studies were carried out with final inhibitor concentrations of 0.5, 1.0, 2.0 or 4.0 μM diluted in fully supplemented DMEM. In brief, unless otherwise stated, NHDFs were cultivated with a low density of 50 cells per mm^2 on a hard tissue culture substrate (100 × 20 mm dish) in fully supplemented DMEM with or without additional TGF-β1 (5 μg/L) for 24 h, promoting their transdifferentiation into proto-myofibroblasts. Thereafter, cells were treated with celastrol or amphotericin B in the presence or absence of TGF-β1 (5 μg/L) for an additional 48 h. Negative controls treated with solvent only were included for every sampling time. The final DMSO content of 0.04% (v/v) was kept constant in all inhibition experiments. […]
# (§2) The RNA extraction from cell lysates and cDNA synthesis for mRNA and miRNA expression analysis were performed as described previously.
# (§3) Quantitative real-time polymerase chain reaction (qRT-PCR) analysis using a LightCycler 480 Instrument II system (Roche, Basel, Swiss) was performed as previously described. The qRT-PCR experiments were conducted with three biological and three technical replicates per donor-derived primary cell culture, unless otherwise stated. The intron-spanning primer sequences used are listed in [7] and Table 1. The geometric mean of the expression levels of the housekeeping genes SDHA, RPL13A and B2M were calculated for expression normalization. The relative target gene mRNA expressions were determined by the ΔΔCT method considering the PCR efficiency. All normalized gene expression levels shown were referred to the respective target gene expression of one primary cell culture sample for the relative comparison of multiple biological samples per experiment and figures.
# TGFB1 mRNA expression = TGFB1 mRNA expression in NHDFs by qRT-PCR; conditions: TGF-β1 5 μg/L, 48 h
# Method: (§4) A former established cell culture model was utilized to investigate the effect of putative XT-I inhibitors on NHDFs. The inhibition studies were carried out with final inhibitor concentrations of 0.5, 1.0, 2.0 or 4.0 μM diluted in fully supplemented DMEM. In brief, unless otherwise stated, NHDFs were cultivated with a low density of 50 cells per mm^2 on a hard tissue culture substrate (100 × 20 mm dish) in fully supplemented DMEM with or without additional TGF-β1 (5 μg/L) for 24 h, promoting their transdifferentiation into proto-myofibroblasts. Thereafter, cells were treated with celastrol or amphotericin B in the presence or absence of TGF-β1 (5 μg/L) for an additional 48 h. Negative controls treated with solvent only were included for every sampling time. The final DMSO content of 0.04% (v/v) was kept constant in all inhibition experiments.
# as §2
# (§5) Quantitative real-time polymerase chain reaction (qRT-PCR) analysis using a LightCycler 480 Instrument II system (Roche, Basel, Swiss) was performed as previously described. […] The geometric mean of the expression levels of the housekeeping genes SDHA, RPL13A and B2M were calculated for expression normalization. The relative target gene mRNA expressions were determined by the ΔΔCT method considering the PCR efficiency. […]
# miRNA-21 = miRNA-21 expression in NHDFs, TaqMan advanced miRNA assay; conditions: TGF-β1 5 µg/L, 48 h, serum-starved NHDFs
# Method: as §2
# The TaqMan advanced miRNA Assay (Thermo Fisher Scientific; Waltham, Massachusetts, United States) was performed, according to the manufacturer’s instructions, for the miRNA expression analyses. The primer assays miRNA-21 (477975_mir) and miRNA-191 (477952_mir) were used. The expression level of miRNA-21 determined was normalized to internal housekeeping gene expression of miRNA-191 via the ΔΔCT method.
# XYLT2 mRNA expression = XYLT2 mRNA expression in NHDFs by qRT-PCR; conditions: TGF-β1 (5 μg/L) supplementation, 48 h
# Method: as §4, §2, §3
# SMAD7 mRNA expression = SMAD7 mRNA expression in NHDFs by qRT-PCR; conditions: TGF-β1 5 μg/L, 48 h
# Method: as §1, §5
substance,measurement,setting,value
"TGF-β1: Recombinant human TGF-β1, pro-fibrotic mediator used to stimulate fibroblasts",increase in XYLT1 mRNA expression relative to untreated control,XYLT1 mRNA expression; Figure 5A–D,3.7 ± 0.3 fold
same,increase in XYLT1 mRNA expression relative to untreated control,XYLT1 mRNA expression; Figure 5E,4.6 ± 0.2 fold
same,TGFB1 mRNA expression (autoinduction) relative to control,TGFB1 mRNA expression,1.1 ± 0.08 fold
same,miRNA-21 expression relative to untreated,miRNA-21,2.5 ± 0.2 fold
same,XYLT2 mRNA expression level,XYLT2 mRNA expression,unaffected
same,SMAD7 mRNA expression relative to control,SMAD7 mRNA expression,1.8 ± 0.2 fold
